Changes are numbered by the printed parent chain.

A word on the Kd: it is the free concentration of one partner at which half of the binding sites on the other are occupied at equilibrium, for simple one-to-one binding. A lower Kd goes with tighter binding.

In one test the target is T1, non-glyc-HS2ST R189A (Gallus gallus, UniProt Q76KB1, R189A).
T1 construct: made in house; host or cells: E. coli Origami B (DE3)
T1 sequence (Q76KB1 69-356 R189A limits assumed): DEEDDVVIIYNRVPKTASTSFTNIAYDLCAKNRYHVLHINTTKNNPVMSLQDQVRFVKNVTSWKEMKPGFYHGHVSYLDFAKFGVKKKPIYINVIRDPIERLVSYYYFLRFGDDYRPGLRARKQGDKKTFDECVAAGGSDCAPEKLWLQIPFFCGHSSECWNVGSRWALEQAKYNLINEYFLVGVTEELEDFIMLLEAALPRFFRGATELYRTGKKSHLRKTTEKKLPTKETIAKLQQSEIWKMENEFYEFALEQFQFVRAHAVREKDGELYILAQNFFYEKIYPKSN
The test can be described thus: BLI equilibrium binding, non-glyc-HS2ST R189A. On the set-up: species or system chicken. The following applies: BLI saturation binding curves, n = 3, ± standard error of fit; — = response too weak to fit. An excerpt: (§1) To assess whether the inhibitory compounds interact with the active site, point mutations were introduced in non-glyc-HS2ST (Fig. 4a). Four mutants of the catalytic residue (H142A/E/R/K) were created, along with a mutation of the residue that facilitates 2-O-sulfation of IdoA residues (R189A)[27]. Additionally, a negative control (NC) was generated containing multiple mutations of positively charged residues (R189A, R80E, and R184E) that reduced the net charge of each protein monomer by 5. The extent that the mutations affected affinity provided an indication that the ligand had been bound in the active site (Table 1 and Supplementary Fig. 1). While R189A markedly diminished the affinity for all compounds, the NC mutations reduced affinity to immeasurable levels. Removal of the catalytic side chain (H142A) enhanced the affinity of each compound, compared to the WT, by approximately 2–3-fold. Addition of a positive charge at this location (H142K/R) further enhanced the affinity for each compound, so much so that a KD value could be measured even for 2. The H142E mutation diminished the affinity of 5 by half compared to WT, but its effects were less significant for binding to 3 or 4.
(§2) The chicken HS2ST-Maltose Binding Protein (MBP) fusion protein was expressed and purified according to previous studies. The fusion protein was transformed into E. coli Origami B (DE3) cells, cultured at 37 °C until OD600 reached 0.5, then induced with isopropyl-β-D-thiogalactopyranoside and allowed to grow overnight at 20 °C. Cells were sonicated, followed by a two-step purification procedure. Whole-cell supernatant was passed through an amylose column with Tris buffer (25 mM Tris, 500 mM NaCl, pH 7.5). An elution buffer consisted of Tris Buffer with 40 mM Maltose. The amylose column eluent was concentrated and loaded on a Superdex 200 Increase 10/300 GL with PBS buffer (10 mM sodium phosphate, 150 mM NaCl, pH 7.8) to separate trimeric protein from aggregate and independent MBP (Supplementary Fig. 4). All reported mutations formed homotrimeric complexes according to the SEC profiles, including the negative control (NC = R189A/R80E/R184E). Protein concentration was assessed via UV at 280 nm (MW of trimer ~210 KDa, extinction coefficient ~119,000 M^−1 cm^−1 according to ExPASy ProtParam webtool[56]). The trimeric protein preparation was adjusted to 5% glycerol and stored at −20 °C until use. Additional non-glyc-HS2ST constructs were created with the Q5® Mutagenesis kit (New England Biolabs Inc.; cat. # E0554S) and sequenced at the Georgia Genomics Facility at the University of Georgia.
(§3) The Octet® RED96 system (FortéBio Inc.) was employed to detect the affinity of the enzymes for specific HS targets. […]

For the next test, the target named is T2, non-glyc-HS2ST H142R (Gallus gallus, UniProt Q76KB1, H142R).
T2 construct: made in house; host or cells: E. coli Origami B (DE3)
T2 sequence (Q76KB1 69-356 H142R limits assumed): T1 sequence (Q76KB1 69-356 R189A limits assumed) with H74R, A121R
The test can be described thus: BLI equilibrium binding, non-glyc-HS2ST H142R. Conditions: BLI saturation binding curves, n = 3, ± standard error of fit. On the set-up: species or system chicken.
Source text: as §1, §2, §3

Turning to “GlcNS6S-GlcA-GlcNS3S6S-IdoA2S-GlcNS6S-GlcA~ [Compound 4]”, the Kd worked out at 63 ± 5 nM at non-glyc-HS2ST R189A and 10 ± 1 nM on non-glyc-HS2ST H142R.

For “GlcNS6S-GlcA-GlcNS6S-GlcA-GlcNS6S-GlcA~ [Compound 5]”, the Kd is over 500 nM on non-glyc-HS2ST R189A and 13 ± 1 nM on non-glyc-HS2ST H142R.

As to “GlcNS6S-GlcA-GlcNS6S-IdoA2S-GlcNS6S-GlcA~ [Compound 3]”, the values for the dissociation constant Kd on non-glyc-HS2ST R189A and on non-glyc-HS2ST H142R were 448 ± 124 nM and 12 ± 1 nM, respectively.

Turning to “GlcNS-GlcA-GlcNS-IdoA2S-GlcNS-GlcA~ [Compound 2]”, the Kd at non-glyc-HS2ST R189A is over 500 nM; on non-glyc-HS2ST H142R, 136 ± 20 nM.

These data come from paper PMC6081452, “Downstream Products are Potent Inhibitors of the Heparan Sulfate 2-O-Sulfotransferase” (Scientific Reports, 2018).
